Data from patent US8143263B2, “Therapeutic agents” (Astrazeneca AB, priority 2008, dated 2012).

Target: T1, recombinant human pancreatic GLK (Homo sapiens, UniProt P35557)
T1 sequence (P35557 1-465): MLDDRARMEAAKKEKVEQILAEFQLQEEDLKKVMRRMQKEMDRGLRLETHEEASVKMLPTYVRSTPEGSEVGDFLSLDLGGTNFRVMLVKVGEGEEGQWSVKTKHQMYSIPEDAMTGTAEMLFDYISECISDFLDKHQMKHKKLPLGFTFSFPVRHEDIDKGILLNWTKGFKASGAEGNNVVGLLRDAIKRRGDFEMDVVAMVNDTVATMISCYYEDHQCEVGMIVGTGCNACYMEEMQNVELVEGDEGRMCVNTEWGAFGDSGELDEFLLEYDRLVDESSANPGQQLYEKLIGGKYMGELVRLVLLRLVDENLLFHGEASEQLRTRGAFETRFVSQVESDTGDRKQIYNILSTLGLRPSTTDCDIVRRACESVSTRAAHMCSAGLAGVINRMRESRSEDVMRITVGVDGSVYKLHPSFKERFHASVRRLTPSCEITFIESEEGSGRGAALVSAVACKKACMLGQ
Assay: biochemical

Row | SMILES | EC50
1 | Cc1nsc(NC(=O)[C@H](COC(C)C)Oc2ncnc3c2cnn3-c2ncccc2Cl)n1 [Example 93, (2S)-2-(1-(3-chloropyridin-2-yl)-1H-pyrazolo[3,4-d]pyrimidin-4-yloxy)-3-isopropoxy-N-(3-methyl-1,2,4-thiadiazol-5-yl)propanamide] | 3300 nM
2 | Cc1cnc(NC(=O)[C@H](COC(C)C)Oc2ncnc3c2cnn3-c2ncccc2Cl)cn1 [Example 92, (2S)-2-(1-(3-chloropyridin-2-yl)-1H-pyrazolo[3,4-d]pyrimidin-4-yloxy)-3-isopropoxy-N-(5-methylpyrazin-2-yl)propanamide] | 420 nM
3 | Cc1ccc(F)cc1-n1ncc2c(O[C@@H](COCCO)C(=O)Nc3ccc(Cl)cn3)ncnc21 [Example 180, (2S)—N-(5-chloropyridin-2-yl)-2-(1-(5-fluoro-2-methylphenyl)-1H-pyrazolo[3,4-d]pyrimidin-4-yloxy)-3-(2-hydroxyethoxy)propanamide] | 940 nM
4 | O=C(Nc1ccc(F)cn1)[C@H](CN1CC(O)C1)Oc1ncnc2c1cnn2-c1ccccc1Cl [Example 215, (2S)-2-[1-(2-chlorophenyl)pyrazolo[4,5-e]pyrimidin-4-yl]oxy-N-(5-fluoro-2-pyridyl)-3-(3-hydroxyazetidin-1-yl)propanamide] | 229 nM
5 | O=C(Nc1ccc(F)cn1)[C@H](CN1CC(O)C1)Oc1ncnc2c1cnn2-c1c(Cl)cccc1Cl [Example 230, (2S)-2-[1-(2,6-dichlorophenyl)pyrazolo[3,4-d]pyrimidin-4-yl]oxy-N-(5-fluoro-2-pyridyl)-3-(3-hydroxyazetidin-1-yl)propanamide] | 110 nM
6 | O=C(Nc1ccc(Cl)cn1)[C@H](COCCO)Oc1ncnc2c1cnn2-c1ccccc1Cl [Example 171, (2S)-2-[1-(2-chlorophenyl)pyrazolo[4,5-e]pyrimidin-4-yl]oxy-N-(5-chloropyridin-2-yl)-3-(2-hydroxyethoxy)propanamide] | 330 nM
7 | Cc1ccc(NC(=O)[C@H](COC(C)C)Oc2ncnc3c2cnn3-c2ncccc2C(F)(F)F)nc1 [Example 126, (2S)-3-Isopropoxy-N-(5-methylpyridin-2-yl)-2-(1-(3-(trifluoromethyl)pyridin-2-yl)-1H-pyrazolo[3,4-d]pyrimidin-4-yloxy)propanamide] | 570 nM
8 | O=C(Nc1ccc(F)cn1)[C@H](CN1CC(O)C1)Oc1ncnc2c1cnn2-c1ncccc1Cl [Example 243, (2S)-2-[1-(3-chloro-2-pyridyl)pyrazolo[3,4-d]pyrimidin-4-yl]oxy-N-(5-fluoro-2-pyridyl)-3-(3-hydroxyazetidin-1-yl)propanamide] | 570 nM
9 | CCOC[C@H](Oc1ncnc2c1cnn2-c1ncccc1Cl)C(=O)Nc1ccc(C)cn1 [Example 103, (2S)-2-[1-(3-Chloropyridin-2-yl)pyrazolo[4,5-e]pyrimidin-4-yl]oxy-3-ethoxy-N-(5-methylpyridin-2-yl)propanamide] | 280 nM
10 | Cc1ccc(NC(=O)[C@H](COC(C)C)Oc2ncnc3c2cnn3-c2ccccc2Cl)nc1 [Example 98, (2S)-2-(1-(2-chlorophenyl)-1H-pyrazolo[3,4-d]pyrimidin-4-yloxy)-3-isopropoxy-N-(5-methylpyridin-2-yl)propanamide] | 110 nM
11 | COCC[C@@H](Oc1ncnc2c1cnn2-c1ccc(F)cc1F)C(=O)Nc1ccc(C)cn1 [Example 26, (R)-2-{[1-(2,4-Difluorophenyl)-1H-pyrazolo[3,4-d]pyrimidin-4-yl]oxy}-4-methoxy-N-(5-methylpyridin-2-yl)butanamide] | 35000 nM
12 | Cc1ccc(NC(=O)[C@H](COCCO)Oc2ncnc3c2cnn3-c2ccccc2Cl)nc1 [Example 194, (2S)-2-(1-(2-chlorophenyl)-1H-pyrazolo[3,4-d]pyrimidin-4-yloxy)-3-(2-hydroxyethoxy)-N-(5-methylpyridin-2-yl)propanamide] | 580 nM
13 | COCC(Oc1ncnc2c1cnn2C)C(=O)Nc1ccc(C)cn1 (stereo not drawn) [Example 8, 3-methoxy-2-[(1-methyl-1H-pyrazolo[3,4-d]pyrimidin-4-yl)oxy]-N-(5-methylpyridin-2-yl)propanamide] | ≥ 100000 nM
14 | COCCC(Oc1ncnc2c1cnn2-c1ccc(F)cc1F)C(=O)Nc1ccc(C)cn1 (stereo not drawn) [Example 25, 2-{[1-(2,4-Difluorophenyl)-1H-pyrazolo[3,4-d]pyrimidin-4-yl]oxy}-4-methoxy-N-(5-methylpyridin-2-yl)butanamide] | 1200 nM
15 | COCC[C@@H](Oc1ncnc2c1cnn2-c1ccccc1Cl)C(=O)Nc1ccc(C)cn1 [Example 20, (R)-2-{[1-(2-Chlorophenyl)-1H-pyrazolo[3,4-d]pyrimidin-4-yl]oxy}-4-methoxy-N-(5-methylpyridin-2-yl)butanamide] | 9300 nM
16 | CC(C)OCC(Oc1ncnc2c1cnn2-c1ccccc1Cl)C(=O)Nc1cnccn1 (stereo not drawn) [Example 108, 2-[1-(2-Chlorophenyl)pyrazolo[4,5-e]pyrimidin-4-yl]oxy-3-isopropoxy-N-pyrazin-2-yl-propanamide] | 1300 nM
17 | CC(C)OCC(Oc1ncnc2c1cnn2-c1ccccc1Cl)C(=O)Nc1ccccn1 (stereo not drawn) [Example 118, 2-[1-(2-chlorophenyl)pyrazolo[4,5-e]pyrimidin-4-yl]oxy-3-isopropoxy-N-(2-pyridyl)propanamide] | 150 nM
18 | Cc1cnc(NC(=O)[C@H](CN2CC(O)C2)Oc2ncnc3c2cnn3-c2ncccc2Cl)s1 [Example 249, (2S)-2-[1-(3-chloro-2-pyridyl)pyrazolo[3,4-d]pyrimidin-4-yl]oxy-3-(3-hydroxyazetidin-1-yl)-N-(5-methylthiazol-2-yl)propanamide] | 590 nM
19 | O=C(Nc1ccccn1)[C@H](CN1CC(O)C1)Oc1ncnc2c1cnn2-c1c(Cl)cccc1Cl [Example 233, (2S)-2-[1-(2,6-dichlorophenyl)pyrazolo[3,4-d]pyrimidin-4-yl]oxy-3-(3-hydroxyazetidin-1-yl)-N-(2-pyridyl)propanamide] | 210 nM
20 | Cc1c(Cl)cccc1-n1ncc2c(O[C@@H](COCCO)C(=O)Nc3ccc(C#N)cn3)ncnc21 [Example 166, (2S)-2-[1-(3-chloro-2-methylphenyl)pyrazolo[4,5-e]pyrimidin-4-yl]oxy-N-(5-cyanopyridin-2-yl)-3-(2-hydroxyethoxy)propanamide] | 2900 nM
21 | O=C(Nc1ccc(Cl)cn1)[C@H](CCCO)Oc1ncnc2c1cnn2-c1ncccc1Cl [Example 212, (2S)—N-(5-chloropyridin-2-yl)-2-(1-(3-chloropyridin-2-yl)-1H-pyrazolo[3,4-d]pyrimidin-4-yloxy)-5-hydroxypentanamide] | 490 nM
22 | C[C@H](CO)OC[C@H](Oc1ncnc2c1cnn2-c1c(Cl)cccc1C#N)C(=O)Nc1ccc(F)cn1 [Example 246, (2S)-2-[1-(2-chloro-6-cyano-phenyl)pyrazolo[3,4-d]pyrimidin-4-yl]oxy-N-(5-fluoro-2-pyridyl)-3-[(1R)-2-hydroxy-1-methyl-ethoxy]propanamide] | 220 nM
23 | Cc1cnc(NC(=O)[C@H](COC2CCC2)Oc2ncnc3c2cnn3-c2ccccc2)cn1 [Example 142, (S)-3-cyclobutoxy-N-(5-methylpyrazin-2-yl)-2-(1-phenyl-1H-pyrazolo[3,4-d]pyrimidin-4-yloxy)propanamide] | 2400 nM
24 | CCOC[C@H](Oc1ncnc2c1cnn2-c1nccn1C)C(=O)Nc1ccc(Cl)cn1 [Example 210, (2S)—N-(5-chloropyridin-2-yl)-3-ethoxy-2-(1-(1-methyl-1H-imidazol-2-yl)-1H-pyrazolo[3,4-d]pyrimidin-4-yloxy)propanamide] | 1200 nM
